In US5861269A, “Methods for removing interferences due to endogenous dehydrogenases in enzyme assays” (Dade Behring Marburg GmbH, priority 1996, dated 1999):

What was measured:
[1] = system: endogenous dehydrogenases; assay: Emit Ethyl Alcohol Assay with inhibitor, serum samples falsely elevated by endogenous dehydrogenases; format: biochemical; settings: inhibitor in Reagent 1
Procedure: (§1) (Part No. 9K219). The assays were performed on the Cobas Mira-S analyzer (Roche Diagnostics Inc., Nutley, N.J.) according to the manufacturer's instructions using the protocol provided by Syva Company. Briefly, the Emit® Ethyl Alcohol Assay consists of two reagents, Reagent 1 and Reagent 2. Reagent 1 contains Tris buffer, stabilizers and preservatives. Reagent 2 contains alcohol dehydrogenase, nicotinamide adenine dinucleotide (NAD^+), bulking agents, stabilizers, surfactants and preservatives. Reagent 2 is shipped in dry form and is reconstituted according to the manufacturer's instructions. To perform the assay, Reagent 1 and Reagent 2 %ere added to the sample. Following mixing and incubation, the change in absorbance at 340 nm was monitored. The reaction is linear, and calibration was achieved by single point calibration using a 100 mg/dL (0.10%) calibrator, supplied by Syva Company. The calculation of results was not required. The instrument prints the quantitative result.
Results reported under the column GC refer to confirmatory results obtained using gas chromatography.
Agaric acid was dissolved in Emit® Ethyl Alcohol Reagent 1 by stirring with heat to a concentration of 25 mM. […] The solution was cooled to room temperature. The pH of the solution was measured and adjusted to the pH of the Emit® Ethyl Alcohol Reagent 1 (pH 9.0) with a small volume of 10N NaOH. […] These discrepant samples were analyzed using the Emit® Ethyl Alcohol Assay side by side with the assay containing agaric acid.

[2] = system: endogenous dehydrogenases; assay: Emit Ethyl Alcohol Assay with inhibitor, whole blood samples; format: biochemical; settings: whole blood ethanol samples
Procedure: as §1, with “The ability of inhibitors to prevent false positive results with samples containing endogenous dehydrogenases was determined by employing the Emit® Ethyl Alcohol Assay available from Syva Company, San Jose, Calif. (Part” for “(Part”
In the following examples, results reported under the column Current Emit® refer to results observed using the Emit® Ethyl Alcohol assay in the absence of inhibitor. […]

[3] = system: malate dehydrogenase; settings: Bacchi et al., J. Bacteriol. 98(1), 23-28 (1969); cited from earlier work
[4] = system: α-glycerophosphate dehydrogenase; settings: Bacchi et al., J. Bacteriol. 98(1), 23-28 (1969); cited from earlier work

Row | Structure (SMILES) | Effect on elevated (false-positive) ethanol results of the Emit Ethyl Alcohol Assay [1] | Accuracy of the Emit Ethyl Alcohol Assay versus current Emit product [2] | Inhibition of malate dehydrogenase [3] | Inhibition of α-glycerophosphate dehydrogenase [4]
1 | CCCCCCCCCCCCOS(=O)(=O)[O-].[Na+] [SDS, sodium dodecyl sulfate] | eliminated | – | – | –
2 | CCCC/C=C\CCCCCCCC(=O)O [Myristoleic Acid, myristoleic acid] | eliminated | – | – | –
3 | CCCCCCCCCCCCCCCCC(C(=O)O)C(O)(CC(=O)O)C(=O)O (centres unmarked) [Agaric Acid, Agaric acid] | eliminated | improved accuracy | highly inhibitory | highly inhibitory
4 | CCCCCCCCCCOS(=O)(=O)[O-].[Na+] [Sodium Decyl Sulfate, sodium decyl sulfate] | eliminated | – | – | –
5 | CCCCCCCCCCCC(=O)O [Lauric Acid, Lauric acid] | eliminated | – | – | –
